# Read-outs that look alike come from different tables or passages of the source.
# Experiments:
# clinical = settings: human, plasma, po, absolute bioavailability, oral administration
# [1] = race (Caucasian vs African American) or BMI
# [2] = injectable formulations (IV or IM or SC); cited from earlier work
# [3] = IV, cited from earlier work
structure (smiles),measurement,setting,value
"Cl.Oc1ccc2c3c1OC1[C@@H](O)CC[C@@]4(O)[C@@H](C2)N(CC2CCC2)CC[C@]314 (stereo partly drawn) [nalbuphine, 17-(cyclobutylmethyl)-4,5α-epoxymorphinian-3, 6α, 14-triol, hydrochloride]",bioavailability,clinical; non-elderly subjects,11%
same,bioavailability,clinical; subjects aged older than 65 years,~44%
same,effect on CL/F due to race or BMI,[1],no observable effect
same,half-life,[2],2 to 3 h
same,volume of distribution,[3]; across the age groups,comparable across the age groups
same,elimination half-life (T½),[3]; children between 1.5 and 8.5 yrs,0.9 h
same,elimination half-life (T½),[3]; elderly subjects 65-90 yrs,2.3 h
same,elimination half-life (T½),[3]; young adults 23-32 yr of age,1.96 h
